Earlier results in US20240409939A1 (Hoffmann-La Roche Inc., priority 2021, published 2024).

What was measured:
[1] = molecular target: T1, FUBP1/FUSE interaction (Homo sapiens, UniProt Q96AE4); conditions: Hosseini et al 2017; cited from earlier work
T1 sequence (Q96AE4 1-644): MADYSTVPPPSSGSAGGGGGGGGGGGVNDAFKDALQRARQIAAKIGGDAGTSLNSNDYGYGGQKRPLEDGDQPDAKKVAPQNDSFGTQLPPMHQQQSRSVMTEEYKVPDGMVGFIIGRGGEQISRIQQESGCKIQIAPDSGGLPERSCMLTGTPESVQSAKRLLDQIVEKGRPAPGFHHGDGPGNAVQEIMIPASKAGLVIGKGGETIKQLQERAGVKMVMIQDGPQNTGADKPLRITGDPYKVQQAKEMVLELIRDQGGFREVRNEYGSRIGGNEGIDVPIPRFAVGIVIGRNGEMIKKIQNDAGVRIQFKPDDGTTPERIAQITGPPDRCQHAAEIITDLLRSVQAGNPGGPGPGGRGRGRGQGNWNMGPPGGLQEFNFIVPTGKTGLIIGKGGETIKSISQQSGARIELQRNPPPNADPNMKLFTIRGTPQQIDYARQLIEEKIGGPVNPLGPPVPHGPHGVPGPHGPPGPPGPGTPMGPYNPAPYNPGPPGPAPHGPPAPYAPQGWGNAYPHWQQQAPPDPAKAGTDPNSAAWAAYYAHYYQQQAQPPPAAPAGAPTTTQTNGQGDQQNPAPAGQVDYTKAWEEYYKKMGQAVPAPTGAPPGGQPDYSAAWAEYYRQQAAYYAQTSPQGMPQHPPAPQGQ

[2] = test system: FUBP1; conditions: Xiong et al 2016; cited from earlier work
[3] = test system: FUBP1; conditions: Huth et al 2004; cited from earlier work

Compound	FUBP1 activity (FUBP1/FUSE interaction) [1]	also measured
CC[C@@]1(O)C(=O)OCc2c1cc1n(c2=O)Cc2cc3ccccc3nc2-1 [camptothecin, Camptothecin ((+)-4 (S)-Ethyl-4-hydroxy-3,4,12, 14-tetrahydro-1H-pyrano [3′,4′: 6,7]indolizino [1,2-b]quinoline-3,14-dione)]	inhibit FUBP1 activity	–
CCCc1cc(C)[nH]c(=O)c1CNC(=O)c1cc(-c2ccnc(N3CCN(C)CC3)c2)cc2c1cnn2C(C)C [GSK343]	–	FUBP1 expression in osteosarcoma cells [2]: inhibits FUBP1 expression
O=C(Nc1ccccc1C(=O)Nc1ccccc1C(=O)O)c1ccccc1 [formula II]	–	inhibition of FUBP1 DNA binding activity [3]: efficient
CCc1c2c(nc3ccc(O)cc13)-c1cc3c(c(=O)n1C2)COC(=O)[C@]3(O)CC [SN-38, SN-38 (4 (S), 11-Diethyl-4,9-dihydroxy-3,4,12, 14-tetrahydro-1H-pyrano [3′,4′: 6,7]indolizino [1,2-b]quinoline-3,14-dione 7-Ethyl-10-hydroxycamptothecin)]	inhibit FUBP1 activity	–
